Experimental data published in patent US9394297B2, “Amides as pim inhibitors” (AMGEN INC., priority 2012, dated 2016).
Where two headings read alike, the source gives them in different places.

Key:
Pim-2 = Pim-2 (Homo sapiens (Human), UniProt Q9P1W9); test: Pim enzyme assay (HTRF, 96-well), Pim-2; type: biochemical; settings: full length recombinant Pim-2, biotinylated-BAD (S112) peptide, 10-point curve, 45 min RT, read-out: Pim-2 IC50 IP
Text: (§1) These cDNAs were used as templates in PCR reactions to produce full-length DNA clones of the PIMs. […] PCR products were digested with BclI and EcoRI for Pim-1 and BamHI and EcoRI for Pim-2 and ligated into a modified baculovirus transfer vector (pFastBac1) cleaved with BamHI and EcoRI. For bacterial expression, the same cleaved PCR products encoding Pim-1 or Pim-2 were ligated into a modified E. coli expression vector pET28(a) cleaved with BamHI and EcoRI. Amino-terminal hexahistidine tags followed by a thrombin cleavage site were previously added to the vectors using standard methods of molecular biology.
(§2) Recombinant baculoviruses expressing Pim-1 or Pim-2 were made using standard methods (Fastbac manual, Invitrogen, Carlsbad, Calif.). […] Cells were harvested by centrifugation and frozen at −80 C. For E. coli expression, cells carrying pET28-His6-Th-Pim-1 or pET28-His6-Th-Pim-2 were picked from a single colony and grown o/n in LB media. The o/n culture was used to inoculate a 2 liter flask with 500 mL media. This was grown o/n and used to inoculate 15-20 liters of Terrific Broth in a New Brunswick Scientific fermentor. The E. coli were grown at 37° C. to and OD600 >1.6. The temperature was dropped to 18° C. and o/n expression was induced with 0.5 mM IPTG. Cells were harvested by centrifugation and frozen at −80° C.
(§3) The slurry was centrifuged at 1,000×g for 5 min, the supernatant decanted, and the resin suspended in 40 mL of lysis wash buffer (lysis buffer at 0.75 M NaCl). This step was repeated 3× and the resin was transferred to a 2.5 cm glass column. Ten column volumes of wash buffer (0.05 M HEPES, pH 8.0, 0.1 M NaCl, 0.01 M 2-mercaptoethanol, 10%(w/v) glycerol) were applied to the resin followed by 10 column volumes of elution buffer (0.05 M HEPES, pH 8.0, 0.25 M NaCl, 0.01 M 2-mercaptoethanol, 10%(w/v) glycerol, 0.1 M imidazole). Fractions were analyzed by SDS-PAGE and those containing the protein of interest were pooled and concentrated. The concentrated protein was applied to an Amersham Superdex 75 (XK 26/60) column equilibrated in 0.025 M Tris-HCl, pH 7.5, 0.1 M NaCl, 0.01 M 2-mercaptoethanol, 10% (w/v) glycerol. […] Fractions containing the monomeric protein of interest were pooled, concentrated to ˜2 mg/mL, and stored at −80° C.
(§4) The phosphorylation of biotinylated-BAD (S112) peptide by full length recombinant Pim-1, Pim-2, or Pim-3 protein was detected with streptavidin:Allophycocyanin (APC) conjugate and a europium (Eu) labeled antibody directed against phosphorylated-BAD (S112). […] The fluorescence is directly proportional to the amount of phosphorylated BAD peptide present in the reaction. […] A reference compound was included on each assay plate in order to validate that plate; on one plate of every assay run, two additional reference compounds were included. The final buffer conditions were as follows: 60 mM Hepes, pH 7.0, 0.05% BSA, 2 mM DTT. Incubations were carried out at RT (22° C.) for 2 h for Pim-1, 1 hour and 30 min for Pim-3, and 45 min for Pim-2. The reaction was stopped by the addition of 3 mM EDTA, and fluorescence was measured by an HTRF® Rubystar microplate reader. For each plate, percent of control (POC) values were calculated for each well. Values for the IC50 IP were estimated using a standard 4-parameter logistic model.

Pim-1 [1] = molecular target: T1, Pim-1 (Homo sapiens (Human), UniProt P11309); test: Pim enzyme assay (HTRF, 96-well), Pim-1; type: biochemical; settings: full length recombinant Pim-1, biotinylated-BAD (S112) peptide, 10-point curve, 2 h RT, read-out: Pim-1 IC50 IP
T1 sequence (P11309 whole entry): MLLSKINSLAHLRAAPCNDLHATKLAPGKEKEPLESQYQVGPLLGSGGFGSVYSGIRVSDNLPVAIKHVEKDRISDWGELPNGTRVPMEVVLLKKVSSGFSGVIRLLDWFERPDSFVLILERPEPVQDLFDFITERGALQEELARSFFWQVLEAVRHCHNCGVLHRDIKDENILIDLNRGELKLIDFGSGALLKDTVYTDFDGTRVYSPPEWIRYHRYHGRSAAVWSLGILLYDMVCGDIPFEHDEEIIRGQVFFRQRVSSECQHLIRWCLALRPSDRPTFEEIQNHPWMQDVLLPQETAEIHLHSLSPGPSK
Text: as §1, §2, §3, §4

[2] = test system: KMS-12-BM myeloma cell line; test: Pim KMS-12 cell assay (phospho-BAD S112 / total BAD, MSD)
Pim-1 [3] = molecular target: T1, Pim-1; test: Pim-Mn enzyme assay (HTRF, 384-well), Pim-1; type: biochemical; settings: Pim-1 enzyme 5 pM, ATP 1.5 μM, BAD (S112) 0.5 μM, HTRF, 22-point curve; read-out: Pim-1-Mn IC50 IP
[4] = Homo sapiens, KMS-12-BM, read-out: KMS-12-BM IC50 IP, KMS-12-BM cells, phospho-BAD (S112) vs total BAD, 1 hour 50 min with compound

Chain of Pim-2 (Q9P1W9 whole entry): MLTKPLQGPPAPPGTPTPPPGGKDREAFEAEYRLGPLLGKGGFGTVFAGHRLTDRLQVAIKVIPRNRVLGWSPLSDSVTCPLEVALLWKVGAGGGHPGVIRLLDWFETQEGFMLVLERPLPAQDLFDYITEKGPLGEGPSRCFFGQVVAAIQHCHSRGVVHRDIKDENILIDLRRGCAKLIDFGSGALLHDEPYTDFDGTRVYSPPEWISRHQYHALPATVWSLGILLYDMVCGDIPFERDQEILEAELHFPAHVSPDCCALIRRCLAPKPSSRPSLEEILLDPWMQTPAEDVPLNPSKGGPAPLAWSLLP

O=C1NCCc2[nH]c(-c3cccc4ccc(Cl)nc34)cc21 [Example 1, 2-(2-chloroquinolin-8-yl)-6,7-dihydro-1H-pyrrolo[3,2-c]pyridin-4(5H)-one]
IC50 (Pim-2): 636 nM | IC50 (Pim-1 [1]): 315 nM

O=c1[nH]cnc2[nH]c(-c3cccc4ccc(Oc5ccccc5)nc34)cc12 [Example 17, 6-(2-phenoxyquinolin-8-yl)-3H-pyrrolo[2,3-d]pyrimidin-4(7H)-one]
IC50 (Pim-2): 80.2 nM | IC50 (Pim-1 [1]): 34 nM

O=C1NCCc2[nH]c(-c3cccc4ccc(Oc5ccc(Cl)cc5)nc34)cc21 [Example 18, 2-(2-(4-chlorophenoxy)quinolin-8-yl)-6,7-dihydro-1H-pyrrolo[3,2-c]pyridin-4(5H)-one]
IC50 (Pim-2): 44.9 nM | IC50 (Pim-1 [1]): 15.5 nM

CC1Cc2[nH]c(-c3cccc4ccc(Nc5ccccc5)nc34)cc2C(=O)N1 (single isomer, unassigned) [Example 34, 6-methyl-2-(2-(phenylamino)quinolin-8-yl)-6,7-dihydro-1H-pyrrolo[3,2-c]pyridin-4(5H)-one]
IC50 (Pim-2): 73.3 nM

CS(=O)(=O)c1ccc(-c2ccc3cccc(-c4cc5c([nH]4)CCNC5=O)c3n2)c(F)c1 [Example 86, 2-(2-(2-fluoro-4-(methylsulfonyl)phenyl)quinolin-8-yl)-6,7-dihydro-1H-pyrrolo[3,2-c]pyridin-4(5H)-one]
IC50 (Pim-2): 143 nM | IC50 (Pim-1 [1]): 49.5 nM

CC1Cc2[nH]c(-c3cccc4ccc(Nc5ccccc5)nc34)cc2C(=O)N1 (racemic) [Example 237, rac-6-methyl-2-(2-(phenylamino)quinolin-8-yl)-6,7-dihydro-1H-pyrrolo[3,2-c]pyridin-4(5H)-one]
IC50 (Pim-2): 34.2 nM | IC50 [2, 4]: 6.58 µM

Cc1ccc(C(N)=O)cc1-c1ccc2cccc(-c3cc4c([nH]3)CCNC4=O)c2n1 [Example 232, 4-methyl-3-(8-(4-oxo-4,5,6,7-tetrahydro-1H-pyrrolo[3,2-c]pyridin-2-yl)-2-quinolinyl)benzamide]
IC50 (Pim-2): 52.9 nM | IC50 (Pim-1 [1]): 23.3 nM

O=c1[nH]ccc2[nH]c(-c3cccc4ccc(Nc5ccccc5)nc34)nc12 [Example 189, 2-(2-(phenylamino)quinolin-8-yl)-1H-imidazo[4,5-c]pyridin-4(5H)-one 2,2,2-trifluoroacetate]
IC50 (Pim-2): 71.8 nM | IC50 (Pim-1 [1]): 28.6 nM

O=C1NCCc2[nH]c(-c3cccc4cnc(Oc5ccccc5)nc34)cc21 [Example 236, 2-(2-phenoxyquinazolin-8-yl)-6,7-dihydro-1H-pyrrolo[3,2-c]pyridin-4(5H)-one 2,2,2-trifluoroacetate]
IC50 (Pim-2): 40.2 nM | IC50 (Pim-1 [1]): 34.2 nM

O=C1NCCc2[nH]c(-c3cccc4ccc(Sc5ccccc5)nc34)cc21 [Example 5, 2-(2-(phenylthio)quinolin-8-yl)-6,7-dihydro-1H-pyrrolo[3,2-c]pyridin-4(5H)-one]
IC50 (Pim-2): 11.5 nM | IC50 [2, 4]: 5.7 µM

O=c1[nH]ccc2[nH]c(-c3cccc4ccc(Nc5c(F)cccc5Cl)nc34)cc12 [Example 12, 2-(2-((2-chloro-6-fluorophenyl)amino)quinolin-8-yl)-1H-pyrrolo[3,2-c]pyridin-4(5H)-one]
IC50 (Pim-2): 11 nM | IC50 (Pim-1 [1]): 2 nM

O=C1NCCc2[nH]c(-c3cccc4cnc(C5(c6ccccc6)CC5)nc34)cc21 [Example 244, 2-(2-(1-phenylcyclopropyl)quinazolin-8-yl)-6,7-dihydro-1H-pyrrolo[3,2-c]pyridin-4(5H)-one]
IC50 (Pim-2): 17.9 nM | IC50 (Pim-1 [1]): 6.9 nM

CCC1CNC(=O)c2cc(-c3cccc4cc(C)c(Nc5ccccc5)nc34)[nH]c21 (racemic) [Example 250, rac-7-ethyl-2-(3-methyl-2-(phenylamino)quinolin-8-yl)-6,7-dihydro-1H-pyrrolo[3,2-c]pyridin-4(5H)-one]
IC50 [2, 4]: 2.82 µM | IC50 (Pim-1 [1]): 1 nM

Cc1nc2cccc(-c3cc4n(c3)CCNC4=O)c2nc1NC1CC1 [Example 233, 7-(3-(cyclopropylamino)-2-methylquinoxalin-5-yl)-3,4-dihydropyrrolo[1,2-a]pyrazin-1(2H)-one 2,2,2-trifluoroacetate]
IC50 (Pim-1 [3]): 25 nM | IC50 [2, 4]: 0.621 µM | IC50 (Pim-1 [1]): 44.6 nM

CCC1CNC(=O)c2cc(-c3cccc4cc(C)c(Nc5ccccc5)nc34)[nH]c21 (single isomer, unassigned) [Example 118, 7-ethyl-2-(3-methyl-2-(phenylamino)quinolin-8-yl)-6,7-dihydro-1H-pyrrolo[3,2-c]pyridin-4(5H)-one]
IC50 ([2]; read-out: KMS-12-BM IC50 IP, KMS-12-BM cells, phospho-BAD (S112) vs total BAD, 1 hour 50 min with compound): 5.21 µM | IC50 (Pim-1 [1]): 3.2 nM

CC1CNC(=O)c2cc(-c3cccc4ccc(Cl)nc34)[nH]c21 (racemic) [Example 27, rac-2-(2-chloroquinolin-8-yl)-7-methyl-6,7-dihydro-1H-pyrrolo[3,2-c]pyridin-4(5H)-one]
IC50 (Pim-2): 366 nM

CC1CNC(=O)c2cc(-c3cccc4ccc(Oc5ccccc5)nc34)[nH]c21 (racemic) [Example 28, rac-7-methyl-2-(2-phenoxyquinolin-8-yl)-6,7-dihydro-1H-pyrrolo[3,2-c]pyridin-4(5H)-one]
IC50 (Pim-2): 61 nM

Cc1nc2cccc(-c3cc4c([nH]3)CCNC4=O)c2nc1F [Example 126, 2-(3-fluoro-2-methylquinoxalin-5-yl)-6,7-dihydro-1H-pyrrolo[3,2-c]pyridin-4(5H)-one]
IC50 (Pim-2): > 1000 nM

O=C1NCCc2[nH]c(-c3cccc4ccc(C5(c6ccccc6)CC5)nc34)cc21 [Example 114, 2-(2-(1-phenylcyclopropyl)quinolin-8-yl)-6,7-dihydro-1H-pyrrolo[3,2-c]pyridin-4(5H)-one]
IC50 (Pim-2): 8.9 nM | IC50 [2, 4]: 4.18 µM

Cc1nc2cccc(-c3cc4c([nH]3)CCNC4=O)c2nc1NC1CCC(=O)N(C)C1 (racemic) [Example 195, rac-2-(2-methyl-3-((1-methyl-6-oxopiperidin-3-yl)amino)quinoxalin-5-yl)-6,7-dihydro-1H-pyrrolo[3,2-c]pyridin-4(5H)-one 2,2,2-trifluoroacetate]
IC50 (Pim-2): 177 nM

CC1Cc2[nH]c(-c3cccc4ccc(Nc5ccccc5)nc34)cc2C(=O)N1 (single isomer, unassigned) [Example 33, 6-methyl-2-(2-(phenylamino)quinolin-8-yl)-6,7-dihydro-1H-pyrrolo[3,2-c]pyridin-4(5H)-one]
IC50 (Pim-2): 35.3 nM | IC50 [2, 4]: 4.1 µM

CC(Oc1ccc2cccc(-c3cc4c([nH]3)CCNC4=O)c2n1)C(F)(F)F (racemic) [Example 79, rac-2-(2-((1,1,1-trifluoropropan-2-yl)oxy)quinolin-8-yl)-6,7-dihydro-1H-pyrrolo[3,2-c]pyridin-4(5H)-one]
IC50 (Pim-2): 204 nM

O=C1NCCc2[nH]c(-c3cccc4ccc(Oc5cccc(O)c5)nc34)cc21 [Example 109, 2-(2-(3-hydroxyphenoxy)quinolin-8-yl)-6,7-dihydro-1H-pyrrolo[3,2-c]pyridin-4(5H)-one]
IC50 (Pim-2): 15.8 nM | IC50 [2, 4]: 8.81 µM

CCCNc1nc2c(-c3cc4c([nH]3)CCNC4=O)cccc2nc1C [Example 191, 2-(2-methyl-3-(propylamino)-5-quinoxalinyl)-1,5,6,7-tetrahydro-4H-pyrrolo[3,2-c]pyridin-4-one]
IC50 (Pim-2): 6.6 nM | IC50 [2, 4]: 0.376 µM
